Measurements reported in PMC3712534 (The FEBS journal, 2013).

Experiments:
[1] = molecular target: PTP-alpha (Homo sapiens, UniProt P18433); test: Inhibition of a panel of PTPs: PTP-alpha; format: biochemical
[2] = system: IKK family members; conditions: cited from earlier work
[3] = molecular target: T1, TC-PTP (Homo sapiens, UniProt P17706); test: Inhibition of a panel of PTPs: TC-PTP; format: biochemical
T1 sequence (P17706 1-415): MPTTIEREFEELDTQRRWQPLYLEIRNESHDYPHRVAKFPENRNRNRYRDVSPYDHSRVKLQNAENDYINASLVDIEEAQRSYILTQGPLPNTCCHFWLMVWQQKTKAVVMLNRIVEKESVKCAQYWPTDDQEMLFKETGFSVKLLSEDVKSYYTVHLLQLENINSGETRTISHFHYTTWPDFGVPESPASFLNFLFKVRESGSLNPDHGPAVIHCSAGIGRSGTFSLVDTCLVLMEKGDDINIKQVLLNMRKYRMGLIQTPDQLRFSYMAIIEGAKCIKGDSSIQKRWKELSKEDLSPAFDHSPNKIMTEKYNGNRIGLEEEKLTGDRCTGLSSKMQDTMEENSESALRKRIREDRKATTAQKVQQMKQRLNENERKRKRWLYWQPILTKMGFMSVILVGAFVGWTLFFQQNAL

[4] = molecular target: T2, PTP1B (Homo sapiens, UniProt P18031); test: Kinetics of time-dependent PTP1B inactivation, continuous DiFMUP assay; format: biochemical; conditions: catalase 0.5 μg/mL (1 unit per assay); PTP1B 5 nM; HEPES pH 7.0, 5 mM DTT
T2 sequence (P18031 1-405): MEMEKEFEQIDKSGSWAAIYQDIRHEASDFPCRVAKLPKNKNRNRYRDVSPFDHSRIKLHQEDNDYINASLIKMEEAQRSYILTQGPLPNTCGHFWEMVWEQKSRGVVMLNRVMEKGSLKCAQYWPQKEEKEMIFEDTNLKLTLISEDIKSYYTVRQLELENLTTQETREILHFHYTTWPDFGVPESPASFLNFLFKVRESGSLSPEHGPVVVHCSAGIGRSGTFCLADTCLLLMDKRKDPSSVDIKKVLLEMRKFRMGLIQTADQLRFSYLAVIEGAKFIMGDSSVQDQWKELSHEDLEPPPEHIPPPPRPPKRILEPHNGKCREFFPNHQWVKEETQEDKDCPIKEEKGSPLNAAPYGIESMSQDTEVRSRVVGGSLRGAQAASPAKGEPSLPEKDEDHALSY

[5] = molecular target: T3, DUSP4 (Homo sapiens, UniProt Q13115); test: Inhibition of a panel of PTPs: DUSP4; format: biochemical
T3 sequence (Q13115 1-394): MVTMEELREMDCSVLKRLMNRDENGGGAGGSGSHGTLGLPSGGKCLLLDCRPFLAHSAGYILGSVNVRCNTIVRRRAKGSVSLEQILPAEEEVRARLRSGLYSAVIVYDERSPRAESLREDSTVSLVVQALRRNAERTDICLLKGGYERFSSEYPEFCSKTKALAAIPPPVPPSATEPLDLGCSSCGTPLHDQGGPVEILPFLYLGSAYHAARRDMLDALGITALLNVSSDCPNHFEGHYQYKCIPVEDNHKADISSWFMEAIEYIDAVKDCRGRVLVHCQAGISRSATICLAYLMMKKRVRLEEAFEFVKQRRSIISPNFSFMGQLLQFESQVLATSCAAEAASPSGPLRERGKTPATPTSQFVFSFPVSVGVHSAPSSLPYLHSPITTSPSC

[6] = molecular target: T2, PTP1B; test: Michaelis-Menten analysis of PTP1B with DiFMUP without and with inhibitor; format: biochemical; conditions: read-out: drop of maximum rate (Vmax) in the presence of inhibitor
[7] = molecular target: T4, PTP-PEST (Homo sapiens, UniProt Q05209); test: Inhibition of a panel of PTPs: PTP-PEST; format: biochemical
T4 sequence (Q05209 1-780): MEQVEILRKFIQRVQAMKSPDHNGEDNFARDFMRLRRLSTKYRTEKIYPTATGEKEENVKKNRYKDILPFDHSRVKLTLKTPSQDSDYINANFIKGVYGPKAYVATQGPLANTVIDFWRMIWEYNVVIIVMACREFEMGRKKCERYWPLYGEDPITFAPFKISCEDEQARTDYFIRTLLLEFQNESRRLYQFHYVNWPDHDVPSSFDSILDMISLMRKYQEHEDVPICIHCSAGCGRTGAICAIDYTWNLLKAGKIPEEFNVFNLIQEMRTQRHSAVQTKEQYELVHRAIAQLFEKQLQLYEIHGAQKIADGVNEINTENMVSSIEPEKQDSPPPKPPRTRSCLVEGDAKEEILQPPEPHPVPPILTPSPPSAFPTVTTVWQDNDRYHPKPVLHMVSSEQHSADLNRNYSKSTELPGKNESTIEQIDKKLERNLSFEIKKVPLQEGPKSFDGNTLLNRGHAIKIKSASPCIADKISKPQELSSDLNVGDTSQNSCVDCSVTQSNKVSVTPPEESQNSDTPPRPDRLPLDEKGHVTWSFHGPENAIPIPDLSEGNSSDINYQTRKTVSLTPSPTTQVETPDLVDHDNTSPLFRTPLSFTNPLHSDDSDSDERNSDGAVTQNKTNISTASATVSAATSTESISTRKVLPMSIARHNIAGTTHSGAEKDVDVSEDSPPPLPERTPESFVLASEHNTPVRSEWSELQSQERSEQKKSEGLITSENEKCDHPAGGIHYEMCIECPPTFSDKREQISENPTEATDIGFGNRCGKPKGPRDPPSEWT

[8] = molecular target: PTEN (Homo sapiens, UniProt P60484); test: Inhibition of a panel of PTPs: PTEN; format: biochemical
PTEN, sequence (P60484 whole entry, species assumed): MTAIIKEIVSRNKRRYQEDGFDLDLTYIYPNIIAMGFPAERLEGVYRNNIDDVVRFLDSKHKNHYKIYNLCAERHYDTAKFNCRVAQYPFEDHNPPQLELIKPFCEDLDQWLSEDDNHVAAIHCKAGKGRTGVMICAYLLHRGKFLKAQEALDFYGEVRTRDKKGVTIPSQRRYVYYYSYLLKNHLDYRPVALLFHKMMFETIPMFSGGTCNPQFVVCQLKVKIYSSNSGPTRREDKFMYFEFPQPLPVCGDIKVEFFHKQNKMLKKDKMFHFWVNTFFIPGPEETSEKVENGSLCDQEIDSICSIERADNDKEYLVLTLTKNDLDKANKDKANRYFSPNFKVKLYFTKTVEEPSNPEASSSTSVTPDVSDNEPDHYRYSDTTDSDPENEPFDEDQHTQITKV

[9] = molecular target: T5, DUSP10 (Homo sapiens, UniProt Q9Y6W6); test: Inhibition of a panel of PTPs: DUSP10; format: biochemical
T5 sequence (Q9Y6W6 1-482): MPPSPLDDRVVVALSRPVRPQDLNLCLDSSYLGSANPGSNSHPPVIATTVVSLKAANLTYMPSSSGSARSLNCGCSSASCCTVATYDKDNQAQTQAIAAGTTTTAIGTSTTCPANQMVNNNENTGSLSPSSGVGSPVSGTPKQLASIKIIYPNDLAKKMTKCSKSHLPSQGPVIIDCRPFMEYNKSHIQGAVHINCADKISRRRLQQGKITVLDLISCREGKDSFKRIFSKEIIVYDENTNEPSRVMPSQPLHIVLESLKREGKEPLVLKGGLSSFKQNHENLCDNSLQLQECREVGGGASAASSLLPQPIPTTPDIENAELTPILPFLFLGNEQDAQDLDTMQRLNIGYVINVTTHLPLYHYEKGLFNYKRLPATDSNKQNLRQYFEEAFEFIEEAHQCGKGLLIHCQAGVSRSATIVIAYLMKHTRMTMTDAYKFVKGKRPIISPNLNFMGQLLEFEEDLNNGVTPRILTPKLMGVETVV

[10] = molecular target: T6, DUSP16 (Homo sapiens, UniProt Q9BY84); test: Inhibition of a panel of PTPs: DUSP16; format: biochemical
T6 sequence (Q9BY84 1-665): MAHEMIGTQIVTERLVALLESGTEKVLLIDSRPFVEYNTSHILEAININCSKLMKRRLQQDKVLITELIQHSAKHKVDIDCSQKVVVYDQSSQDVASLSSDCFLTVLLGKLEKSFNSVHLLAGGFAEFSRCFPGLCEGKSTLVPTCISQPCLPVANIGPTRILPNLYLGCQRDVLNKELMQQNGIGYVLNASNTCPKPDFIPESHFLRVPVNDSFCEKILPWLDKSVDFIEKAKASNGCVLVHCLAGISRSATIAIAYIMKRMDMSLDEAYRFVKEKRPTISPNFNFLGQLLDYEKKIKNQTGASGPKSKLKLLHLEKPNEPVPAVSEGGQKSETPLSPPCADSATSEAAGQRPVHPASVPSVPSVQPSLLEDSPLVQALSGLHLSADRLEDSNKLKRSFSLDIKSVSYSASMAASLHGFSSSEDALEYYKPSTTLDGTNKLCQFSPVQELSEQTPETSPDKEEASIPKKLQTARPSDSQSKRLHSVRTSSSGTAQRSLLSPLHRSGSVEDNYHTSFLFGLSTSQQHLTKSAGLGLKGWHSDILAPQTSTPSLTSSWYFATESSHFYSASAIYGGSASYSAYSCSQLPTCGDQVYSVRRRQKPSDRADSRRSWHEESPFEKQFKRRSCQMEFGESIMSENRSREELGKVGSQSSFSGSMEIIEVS

[11] = molecular target: T2, PTP1B; test: Inhibition of a panel of PTPs: PTP1B phosphatase activity, DiFMUP substrate; format: biochemical
[12] = molecular target: LAR (Homo sapiens, UniProt P10586); test: Inhibition of a panel of PTPs: LAR; format: biochemical
LAR, sequence (P10586 30-1907, species assumed): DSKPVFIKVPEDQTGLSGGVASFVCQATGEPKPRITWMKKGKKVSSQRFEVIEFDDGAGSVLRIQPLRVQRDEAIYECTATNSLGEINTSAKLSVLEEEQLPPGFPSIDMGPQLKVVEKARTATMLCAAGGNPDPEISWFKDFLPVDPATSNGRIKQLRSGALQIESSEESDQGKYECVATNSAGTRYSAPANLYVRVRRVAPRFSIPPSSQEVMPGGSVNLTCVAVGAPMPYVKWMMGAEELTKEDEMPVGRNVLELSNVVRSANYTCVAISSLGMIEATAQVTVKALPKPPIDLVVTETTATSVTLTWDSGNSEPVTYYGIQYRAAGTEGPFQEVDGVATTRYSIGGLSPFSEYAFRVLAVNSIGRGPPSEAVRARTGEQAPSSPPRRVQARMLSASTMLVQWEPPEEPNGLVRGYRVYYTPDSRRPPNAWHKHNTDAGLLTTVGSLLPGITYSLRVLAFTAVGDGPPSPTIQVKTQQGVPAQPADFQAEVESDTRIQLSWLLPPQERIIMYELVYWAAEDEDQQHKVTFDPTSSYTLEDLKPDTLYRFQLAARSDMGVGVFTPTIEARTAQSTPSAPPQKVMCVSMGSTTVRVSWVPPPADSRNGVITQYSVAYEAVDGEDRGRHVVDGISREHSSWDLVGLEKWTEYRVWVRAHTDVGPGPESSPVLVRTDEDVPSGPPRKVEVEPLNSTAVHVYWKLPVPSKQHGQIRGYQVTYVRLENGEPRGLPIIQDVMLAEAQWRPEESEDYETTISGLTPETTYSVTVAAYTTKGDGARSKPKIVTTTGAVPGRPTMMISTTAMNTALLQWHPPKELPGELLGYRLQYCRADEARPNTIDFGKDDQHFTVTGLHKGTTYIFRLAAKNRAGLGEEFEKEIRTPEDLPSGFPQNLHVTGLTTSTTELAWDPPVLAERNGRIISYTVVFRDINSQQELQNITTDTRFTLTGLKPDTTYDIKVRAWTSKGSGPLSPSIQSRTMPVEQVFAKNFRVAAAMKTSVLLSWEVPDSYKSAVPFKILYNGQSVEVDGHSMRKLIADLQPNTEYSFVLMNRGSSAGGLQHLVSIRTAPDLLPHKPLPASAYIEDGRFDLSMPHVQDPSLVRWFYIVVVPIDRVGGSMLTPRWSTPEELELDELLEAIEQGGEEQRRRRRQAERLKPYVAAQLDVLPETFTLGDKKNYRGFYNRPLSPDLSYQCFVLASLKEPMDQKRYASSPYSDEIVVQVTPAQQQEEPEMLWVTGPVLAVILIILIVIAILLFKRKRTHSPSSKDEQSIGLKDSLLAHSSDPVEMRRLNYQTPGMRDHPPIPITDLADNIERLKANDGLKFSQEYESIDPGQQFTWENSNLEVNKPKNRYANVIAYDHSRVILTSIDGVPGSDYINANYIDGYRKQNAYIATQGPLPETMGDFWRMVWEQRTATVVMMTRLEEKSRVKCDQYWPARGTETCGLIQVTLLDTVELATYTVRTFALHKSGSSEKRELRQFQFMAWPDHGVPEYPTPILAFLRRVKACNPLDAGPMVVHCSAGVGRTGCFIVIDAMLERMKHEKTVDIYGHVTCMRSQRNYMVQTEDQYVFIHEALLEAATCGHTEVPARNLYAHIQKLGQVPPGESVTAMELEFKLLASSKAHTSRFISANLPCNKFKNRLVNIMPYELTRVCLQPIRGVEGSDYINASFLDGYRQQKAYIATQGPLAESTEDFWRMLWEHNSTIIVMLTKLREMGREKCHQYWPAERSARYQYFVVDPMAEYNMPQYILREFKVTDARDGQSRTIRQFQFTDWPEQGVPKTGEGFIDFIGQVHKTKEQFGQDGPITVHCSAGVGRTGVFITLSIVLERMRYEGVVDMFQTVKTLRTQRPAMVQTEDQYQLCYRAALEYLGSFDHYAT

[13] = molecular target: T7, DUSP14 (Homo sapiens, UniProt O95147); test: Inhibition of a panel of PTPs: DUSP14; format: biochemical
T7 sequence (O95147 1-198): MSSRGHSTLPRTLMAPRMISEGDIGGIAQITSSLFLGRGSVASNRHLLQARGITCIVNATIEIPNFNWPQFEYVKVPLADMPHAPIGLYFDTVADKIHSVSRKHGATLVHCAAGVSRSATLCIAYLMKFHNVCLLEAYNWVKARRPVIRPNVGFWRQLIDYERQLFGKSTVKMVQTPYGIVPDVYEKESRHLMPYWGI

[14] = molecular target: T2, PTP1B; conditions: cited from earlier work
[15] = system: RAW 264 macrophages; test: Anti-phosphotyrosine; format: cell-based; conditions: 1 mM, 30 minutes; in the presence and absence of LPS

PTP-alpha, sequence (P18433 20-802): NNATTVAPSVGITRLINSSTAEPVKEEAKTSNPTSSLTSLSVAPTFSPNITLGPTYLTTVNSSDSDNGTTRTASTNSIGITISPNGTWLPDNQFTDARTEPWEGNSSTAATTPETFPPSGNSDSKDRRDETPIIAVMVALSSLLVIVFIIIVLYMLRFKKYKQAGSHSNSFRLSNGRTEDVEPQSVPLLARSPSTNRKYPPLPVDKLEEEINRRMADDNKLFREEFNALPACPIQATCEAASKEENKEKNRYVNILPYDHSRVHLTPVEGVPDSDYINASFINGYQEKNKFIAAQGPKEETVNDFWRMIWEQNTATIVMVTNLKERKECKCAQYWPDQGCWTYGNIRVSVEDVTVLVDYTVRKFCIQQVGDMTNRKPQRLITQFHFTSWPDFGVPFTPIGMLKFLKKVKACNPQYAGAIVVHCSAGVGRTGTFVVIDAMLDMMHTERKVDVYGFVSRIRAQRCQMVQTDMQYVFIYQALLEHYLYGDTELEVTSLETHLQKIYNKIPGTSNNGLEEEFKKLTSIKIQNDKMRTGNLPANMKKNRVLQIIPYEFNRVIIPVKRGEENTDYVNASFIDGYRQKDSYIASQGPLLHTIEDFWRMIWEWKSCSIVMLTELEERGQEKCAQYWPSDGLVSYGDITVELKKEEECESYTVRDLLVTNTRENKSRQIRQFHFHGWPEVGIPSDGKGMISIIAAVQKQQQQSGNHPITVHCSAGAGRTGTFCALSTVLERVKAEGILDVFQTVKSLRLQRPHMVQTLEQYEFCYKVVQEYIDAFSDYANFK

Row | SMILES | Ki [1] | inhibition of IKK family members in vitro [2] | Ki [3] | rate of inactivation of PTP1B in the absence and presence of catalase [4] | Ki [5] | inhibition at 2 µM [6] | Ki [7] | Ki [8] | Ki [9] | Ki [10] | Ki [11] | Ki [12] | Ki [13] | rate of oxidation of the enzyme [14] | extent of tyrosine phosphorylation (anti-pTyr immunoblot) [15]
1 | Cc1ccc(S(=O)(=O)/C=C/C#N)cc1 [BAY 11-7082] | 2.3 µM | does not inhibit | 1.5 µM | the same | 140 µM | ~50% | 0.9 µM | 100 µM | 150 µM | 125 µM | 1 µM | 2.5 µM | 180 µM | – | –
2 | CC(C)(C)c1ccc(S(=O)(=O)/C=C/C#N)cc1 [BAY 11-7085] | 45 µM | – | 39 µM | – | 160 µM | – | 40 µM | 200 µM | 180 µM | 205 µM | 36 µM | 57 µM | 210 µM | – | –
3 | OO [H2O2, hydrogen peroxide] | – | – | – | – | – | – | – | – | – | – | – | – | – | 10 M⁻¹ s⁻¹ | –
4 | [Na+].[Na+].[Na+].[O]=[V]([O-])([O-])[O-] [sodium orthovanadate] | – | – | – | – | – | – | – | – | – | – | – | – | – | – | enhanced
